US11472769B2, “SSAO inhibitors and use thereof” (Eccogene (Shanghai) Co., Ltd., priority 2019, dated 2022)

Assays:
[1] = Brain Kpuu assay (BBB assay and protein binding assay); type: in vivo; details: ICR mice, 1 mg/kg IV, plasma and brain collected at 5 minutes after dosing; for Kp uu at 5 min: mouse, read-out: Kpuu (mouse, t = 5 min)
Method: For example, Brain Kpuu assay composed of Blood-Brain-Barrier (BBB) assay and protein binding assay, can be utilized. The protein binding assay comprises equilibrium dialysis against brain lysate and plasma to calculate fu(brain) and fu(plasma), respectively. The BBB assay can be conducted in experimental animals at 1 mg/kg IV dosage. After dosing with the compounds of the present application, plasma and brain samples can be collected to analyze compound concentration (Cplasma and Cbrain). The Kpuu value of the tested compounds can be calculated by the equation: […]
Brain Kpuu assay is composed of Blood-Brain-Barrier (BBB) assay and protein binding assay, which are conducted in ICR mice. Protein binding assays were performed in 96-well plates, using equilibrium dialysis against brain lysate and plasma to calculate fu(brain) and fu(plasma), respectively. BBB assays were conducted in mice at 1 mg/kg IV dosage. Plasma and brain samples were collected at 5 minutes after dosing to analyze compounds concentration (Cplasma and Cbrain). The Kpuu value of the tested compounds was calculated by the equation: […]

recombinant hMAO-A = recombinant hMAO-A (Homo sapiens (Human), UniProt P21397); assay: MAO-A activity assay (MAO-Glo assay kit); type: biochemical; details: 40 μM substrate, 30 mins pre-incubation
In short: (§1)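 Substrate was 4 μM in MAO-B buffer for hMAO-B and 40 μM in MAO-A buffer for hSSAO and hMAO-A. Each enzyme first saw compound (0.1% DMSO vehicle) for 30 min at room temperature.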

recombinant hMAO-B = recombinant hMAO-B (Homo sapiens (Human), UniProt P27338); assay: MAO-B activity assay (MAO-Glo assay kit); type: biochemical; details: 4 μM substrate, 30 mins pre-incubation
In short: as §1

recombinant hSSAO = recombinant hSSAO (Homo sapiens (Human), UniProt Q16853); assay: SSAO Activity Assay (MAO-Glo assay kit); type: biochemical; details: 40 μM substrate, 30 mins pre-incubation
In short: as §1

Chain of recombinant hMAO-A (P21397 whole entry): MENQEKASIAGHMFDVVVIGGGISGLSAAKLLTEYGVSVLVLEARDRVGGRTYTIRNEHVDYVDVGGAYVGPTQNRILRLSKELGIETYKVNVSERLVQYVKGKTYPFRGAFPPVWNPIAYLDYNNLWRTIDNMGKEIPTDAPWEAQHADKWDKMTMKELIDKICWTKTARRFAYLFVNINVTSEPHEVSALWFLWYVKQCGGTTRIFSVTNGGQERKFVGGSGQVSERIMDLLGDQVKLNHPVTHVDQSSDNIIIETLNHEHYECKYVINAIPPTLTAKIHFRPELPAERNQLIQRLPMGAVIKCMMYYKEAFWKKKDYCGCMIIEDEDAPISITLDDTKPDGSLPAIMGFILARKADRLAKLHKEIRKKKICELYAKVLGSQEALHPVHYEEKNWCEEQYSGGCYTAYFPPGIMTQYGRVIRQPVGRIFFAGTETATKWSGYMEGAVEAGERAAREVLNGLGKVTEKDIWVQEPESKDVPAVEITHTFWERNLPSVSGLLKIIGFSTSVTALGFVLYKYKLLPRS
Chain of recombinant hSSAO (Q16853 whole entry): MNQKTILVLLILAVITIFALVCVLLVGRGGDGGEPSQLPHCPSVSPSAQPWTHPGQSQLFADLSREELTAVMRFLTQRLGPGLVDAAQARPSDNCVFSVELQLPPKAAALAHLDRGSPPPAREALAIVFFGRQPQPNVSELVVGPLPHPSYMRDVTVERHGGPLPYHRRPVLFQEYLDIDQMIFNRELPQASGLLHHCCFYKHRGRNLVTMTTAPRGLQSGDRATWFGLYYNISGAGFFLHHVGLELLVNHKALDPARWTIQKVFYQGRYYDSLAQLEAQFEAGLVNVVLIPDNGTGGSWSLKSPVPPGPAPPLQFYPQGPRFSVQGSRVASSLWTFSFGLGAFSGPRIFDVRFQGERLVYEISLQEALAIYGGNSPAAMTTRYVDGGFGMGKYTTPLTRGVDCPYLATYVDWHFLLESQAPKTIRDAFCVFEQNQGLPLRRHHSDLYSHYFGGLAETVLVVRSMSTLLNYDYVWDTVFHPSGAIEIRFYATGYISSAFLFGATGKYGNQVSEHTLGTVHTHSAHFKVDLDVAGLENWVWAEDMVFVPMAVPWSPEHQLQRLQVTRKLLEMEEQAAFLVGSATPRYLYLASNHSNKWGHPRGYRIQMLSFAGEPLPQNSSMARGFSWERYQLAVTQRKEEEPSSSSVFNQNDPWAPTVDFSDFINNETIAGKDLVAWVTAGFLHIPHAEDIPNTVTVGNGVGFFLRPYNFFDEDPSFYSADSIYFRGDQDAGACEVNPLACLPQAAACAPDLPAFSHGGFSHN
Chain of recombinant hMAO-B (P27338 whole entry): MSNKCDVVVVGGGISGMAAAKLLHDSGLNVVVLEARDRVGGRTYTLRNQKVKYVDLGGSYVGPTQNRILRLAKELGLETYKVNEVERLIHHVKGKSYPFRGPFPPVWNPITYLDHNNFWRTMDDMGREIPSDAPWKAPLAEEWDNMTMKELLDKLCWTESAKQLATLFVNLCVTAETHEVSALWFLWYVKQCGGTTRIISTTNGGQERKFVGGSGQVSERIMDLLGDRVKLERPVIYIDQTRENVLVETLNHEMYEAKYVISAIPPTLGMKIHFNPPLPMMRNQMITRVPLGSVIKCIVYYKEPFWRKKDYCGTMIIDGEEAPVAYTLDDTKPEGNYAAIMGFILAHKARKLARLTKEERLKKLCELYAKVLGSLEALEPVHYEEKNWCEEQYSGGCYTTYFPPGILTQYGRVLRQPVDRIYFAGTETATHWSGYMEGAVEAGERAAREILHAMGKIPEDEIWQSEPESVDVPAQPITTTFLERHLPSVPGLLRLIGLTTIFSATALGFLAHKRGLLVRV

Kpuu (mouse, t = 5 min) [1] | Kp uu at 5 min [1] | IC50 (recombinant hMAO-A) [µM] | IC50 (recombinant hMAO-B) [µM] | IC50 (recombinant hSSAO) [µM] | SMILES
0.23 | – | – | – | – | CC(C)(C)NC(=O)c1ccc(OC/C(=C/F)CN)cc1.Cl [BI 1467335 (PXS-4728A), reference compound]
– | 0.025 | > 30 | > 30 | 0.02 to 0.1 | NC/C(=C\F)COc1ccc(S(=O)(=O)CC2CCN(C(=O)C3CC3)CC2)cc1 [Compound 44, (E)-(4-(((4-((2-(aminomethyl)-3-fluoroallyl)oxy)phenyl)sulfonyl)methyl)piperidin-1-yl)(cyclopropyl)methanone]
– | 0.018 | > 30 | 10 to 30 | < 0.02 | NC/C(=C\F)COc1ccc(S(=O)(=O)CC23CCC(C(=O)NCC(F)(F)F)(CC2)CC3)cc1 [Compound 65, (E)-4-(((4-((2-(aminomethyl)-3-fluoroallyl)oxy)phenyl)sulfonyl)methyl)-N-(2,2,2-trifluoroethyl)bicyclo[2.2.2] octane-1-carboxamide]
– | 0.01 | > 30 | 10 to 30 | 0.02 to 0.1 | CC(C)(C)NC(=O)C12CCC(CS(=O)(=O)c3ccc(OC/C(=C/F)CN)cc3)(CC1)CC2 [Compound 70, (E)-4-(((4-((2-(aminomethyl)-3-fluoroallyl)oxy)phenyl)sulfonyl)methyl)-N-(tert-butyl)bicyclo[2.2.2]octane-1-carboxamide]
– | 0.077 | > 30 | 10 to 30 | < 0.02 | CC1(C(=O)NC23CCC(CS(=O)(=O)c4ccc(OC/C(=C/F)CN)cc4)(CC2)CC3)CC1 [Compound 91, (E)-N-(4-(((4-((2-(aminomethyl)-3-fluoroallyl)oxy)phenyl)sulfonyl)methyl)bicyclo[2.2.2]octan-1-yl)-1-methylcyclopropane-1-carboxamide]
– | – | > 30 | < 10 | 0.02 to 0.1 | CC1(C)CCN(CS(=O)(=O)c2ccc(OC/C(=C/F)CN)cc2)C1=O [Compound 125, (E)-1-(((4-((2-(aminomethyl)-3-fluoroallyl)oxy)phenyl)sulfonyl)methyl)-3,3-dimethylpyrrolidin-2-one]
– | – | > 30 | 10 to 30 | 0.1 to 0.5 | CC1(C)CC(=O)N(CS(=O)(=O)c2ccc(OC/C(=C/F)CN)cc2)C1 [Compound 126, (E)-1-(((4-((2-(aminomethyl)-3-fluoroallyl)oxy)phenyl)sulfonyl)methyl)-4,4-dimethylpyrrolidin-2-one]
– | – | > 30 | < 10 | 0.1 to 0.5 | NC/C(=C\F)COc1ccc(S(=O)(=O)CN2CCC3(CCCC3)C2=O)cc1 [Compound 127, (E)-2-(((4-((2-(aminomethyl)-3-fluoroallyl)oxy)phenyl)sulfonyl)methyl)-2-azaspiro[4.4]nonan-1-one]
– | – | > 30 | > 30 | 0.1 to 0.5 | NC/C(=C\F)COc1ccc(S(=O)(=O)CN2CCC3(CCCC3)C2=O)c(F)c1 [Compound 128, (E)-2-(((4-((2-(aminomethyl)-3-fluoroallyl)oxy)-2-fluorophenyl)sulfonyl)methyl)-2-azaspiro[4.4]nonan-1-one]
– | – | > 30 | 10 to 30 | 0.02 to 0.1 | NC/C(=C\F)COc1ccc(S(=O)(=O)CN2CCCCC2=O)cc1 [Compound 129, (E)-1-(((4-((2-(aminomethyl)-3-fluoroallyl)oxy)phenyl)sulfonyl)methyl)piperidin-2-one]
– | – | > 30 | > 30 | 0.02 to 0.1 | NC/C(=C\F)COc1ccc(S(=O)(=O)CN2CCOCC2=O)cc1 [Compound 130, (E)-4-(((4-((2-(aminomethyl)-3-fluoroallyl)oxy)phenyl)sulfonyl)methyl)morpholin-3-one]
– | – | > 30 | > 30 | 0.02 to 0.1 | NC/C(=C\F)COc1ccc(S(=O)(=O)CN2CCOCC2=O)c(F)c1 [Compound 131, (E)-4-(((4-((2-(aminomethyl)-3-fluoroallyl)oxy)-2-fluorophenyl)sulfonyl)methyl) morpholin-3-one]
– | – | > 30 | < 10 | 0.02 to 0.1 | CC1(C)COCC(=O)N1CS(=O)(=O)c1ccc(OC/C(=C/F)CN)cc1 [Compound 132, (E)-4-(((4-((2-(aminomethyl)-3-fluoroallyl)oxy)phenyl)sulfonyl)methyl)-5,5-dimethylmorpholin-3-one]
– | – | > 30 | > 30 | < 0.02 | NC/C(=C/F)COc1ccc(S(=O)(=O)CC23CCC(C(=O)NC4CCC4)(CC2)CC3)cc1 [Compound 140, (Z)-4-(((4-((2-(aminomethyl)-3-fluoroallyl)oxy)phenyl)sulfonyl)methyl)-N-cyclobicyclo[2.2.2]octane-1-carboxamide]
– | – | > 30 | > 30 | 0.02 to 0.1 | CC(C)(C)NC(=O)C12CCC(CS(=O)(=O)c3ccc(OC/C(=C\F)CN)cc3)(CC1)CC2 [Compound 141, (Z)-4-(((4-((2-(aminomethyl)-3-fluoroallyl)oxy)phenyl)sulfonyl)methyl)-N-(tert-butyl)bicyclo[2.2.2]octane-1-carboxamide]
– | – | > 30 | > 30 | < 0.02 | CC(C)(C)C(=O)NC12CCC(CS(=O)(=O)c3ccc(OC/C(=C\F)CN)cc3)(CC1)CC2 [Compound 142, (Z)-N-(4-(((4-((2-(aminomethyl)-3-fluoroallyl)oxy)phenyl)sulfonyl)methyl)bicyclo[2.2.2]octan-1-yl)pivalamide]
– | – | > 30 | < 10 | 0.02 to 0.1 | CC(C)NC(=O)C1CCC(CS(=O)(=O)c2ccc(OC/C(=C/F)CN)cc2)CC1 (centres unmarked) [Compound 144, (E)-4-(((4-((2-(aminomethyl)-3-fluoroallyl)oxy)phenyl)sulfonyl)methyl)-N-isopropylcyclohexane-1-carboxamide]
– | – | 10 to 30 | 10 to 30 | 0.02 to 0.1 | N#CC1(CS(=O)(=O)c2ccc(OC/C(=C/F)CN)cc2F)CCOCC1 [compound 13, (E)-4-(((4-((2-(aminomethyl)-3-fluoroallyl)oxy)-2-fluorophenyl)sulfonyl)methyl) tetrahydro-2H-pyran-4-carbonitrile]
– | – | > 30 | > 30 | < 0.02 | CC(C)C(=O)N1CCC(CS(=O)(=O)c2ccc(OC/C(=C/F)CN)cc2)CC1 [compound 37, (E)-1-(4-(((4-((2-(aminomethyl)-3-fluoroallyl)oxy)phenyl)sulfonyl)methyl)piperidin-1-yl)-2-methylpropan-1-one]
– | 0.034 | – | 10 to 30 | 0.02 to 0.1 | CN(C)C(=O)C12CCC(CS(=O)(=O)c3ccc(OC/C(=C/F)CN)cc3)(CC1)CC2 [compound 62, (E)-4-(((4-((2-(aminomethyl)-3-fluoroallyl)oxy)phenyl)sulfonyl)methyl)-N,N-dimethylbicyclo[2.2.2]octane-1-carboxamide]
